Assay results reported in publication PMC8632246, “KCNQ and KCNE Isoform-Dependent Pharmacology Rationalizes Native American Dual Use of Specific Plants as Both Analgesics and Gastrointestinal Therapeutics” (Frontiers in Physiology, 2021).

What was measured:
KCNQ2/3 (KCNQ3 subunit) = biological target: T1, KCNQ2/3 (KCNQ3 subunit) (Homo sapiens, UniProt O43525+O43526); assay: two-electrode voltage clamp in Xenopus oocytes, dose response at -70 mV; WL/WL and RA/RA mutants insensitive; format: cell-based
T1 construct: human KCNQ2/3 heteromeric channel expressed in Xenopus oocytes; with KCNQ2
T1 sequence (O43525 whole entry): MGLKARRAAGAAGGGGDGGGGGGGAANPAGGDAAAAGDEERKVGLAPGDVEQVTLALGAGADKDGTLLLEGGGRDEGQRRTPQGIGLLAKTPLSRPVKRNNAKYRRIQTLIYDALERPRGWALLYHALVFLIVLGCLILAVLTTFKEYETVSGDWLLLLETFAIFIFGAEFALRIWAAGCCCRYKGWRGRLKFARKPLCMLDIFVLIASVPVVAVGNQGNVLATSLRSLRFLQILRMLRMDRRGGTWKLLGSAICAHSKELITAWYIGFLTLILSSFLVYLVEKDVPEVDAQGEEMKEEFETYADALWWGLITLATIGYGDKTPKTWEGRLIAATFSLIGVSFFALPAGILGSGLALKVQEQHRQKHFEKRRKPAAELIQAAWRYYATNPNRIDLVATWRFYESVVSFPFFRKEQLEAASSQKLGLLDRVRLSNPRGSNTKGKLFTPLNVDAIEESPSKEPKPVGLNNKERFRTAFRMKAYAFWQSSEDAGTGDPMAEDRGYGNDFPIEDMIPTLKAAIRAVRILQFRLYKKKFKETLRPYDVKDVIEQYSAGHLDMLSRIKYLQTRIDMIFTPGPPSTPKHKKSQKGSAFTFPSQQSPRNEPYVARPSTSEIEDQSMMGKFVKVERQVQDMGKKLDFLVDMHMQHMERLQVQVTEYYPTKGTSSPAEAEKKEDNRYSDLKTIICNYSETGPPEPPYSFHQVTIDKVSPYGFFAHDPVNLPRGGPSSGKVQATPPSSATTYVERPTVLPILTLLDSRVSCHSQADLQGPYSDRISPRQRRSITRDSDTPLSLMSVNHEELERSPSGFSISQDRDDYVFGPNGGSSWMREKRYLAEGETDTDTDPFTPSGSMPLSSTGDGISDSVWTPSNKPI
T1 sequence (O43526 whole entry): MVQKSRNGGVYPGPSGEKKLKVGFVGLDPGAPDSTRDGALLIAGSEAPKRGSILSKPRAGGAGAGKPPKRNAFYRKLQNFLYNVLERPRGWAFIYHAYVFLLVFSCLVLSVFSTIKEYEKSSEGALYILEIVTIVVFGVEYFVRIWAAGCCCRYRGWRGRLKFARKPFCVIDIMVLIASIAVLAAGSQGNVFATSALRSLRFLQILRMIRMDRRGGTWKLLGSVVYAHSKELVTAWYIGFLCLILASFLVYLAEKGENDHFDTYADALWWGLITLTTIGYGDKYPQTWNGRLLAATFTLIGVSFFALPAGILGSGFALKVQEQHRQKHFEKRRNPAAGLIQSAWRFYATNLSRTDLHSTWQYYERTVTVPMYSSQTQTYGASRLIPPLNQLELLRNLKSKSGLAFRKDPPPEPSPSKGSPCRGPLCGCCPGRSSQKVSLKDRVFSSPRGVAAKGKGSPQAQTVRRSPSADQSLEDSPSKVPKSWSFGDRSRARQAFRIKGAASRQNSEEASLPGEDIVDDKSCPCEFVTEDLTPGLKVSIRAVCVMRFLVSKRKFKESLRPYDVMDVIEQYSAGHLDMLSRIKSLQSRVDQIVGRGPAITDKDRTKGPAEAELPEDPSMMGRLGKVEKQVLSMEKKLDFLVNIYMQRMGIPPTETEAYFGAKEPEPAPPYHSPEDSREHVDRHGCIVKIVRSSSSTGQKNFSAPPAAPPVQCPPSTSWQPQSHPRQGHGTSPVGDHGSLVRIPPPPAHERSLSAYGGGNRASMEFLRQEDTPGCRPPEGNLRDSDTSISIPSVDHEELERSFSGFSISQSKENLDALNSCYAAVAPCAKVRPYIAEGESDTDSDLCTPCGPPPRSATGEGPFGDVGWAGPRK

KCNQ1 = biological target: T2, KCNQ1 (Homo sapiens, UniProt P51787); assay: two-electrode voltage clamp in Xenopus oocytes, […] quercetin; format: cell-based
T2 construct: homomeric human KCNQ1 expressed in Xenopus oocytes
T2 sequence (P51787 1-676): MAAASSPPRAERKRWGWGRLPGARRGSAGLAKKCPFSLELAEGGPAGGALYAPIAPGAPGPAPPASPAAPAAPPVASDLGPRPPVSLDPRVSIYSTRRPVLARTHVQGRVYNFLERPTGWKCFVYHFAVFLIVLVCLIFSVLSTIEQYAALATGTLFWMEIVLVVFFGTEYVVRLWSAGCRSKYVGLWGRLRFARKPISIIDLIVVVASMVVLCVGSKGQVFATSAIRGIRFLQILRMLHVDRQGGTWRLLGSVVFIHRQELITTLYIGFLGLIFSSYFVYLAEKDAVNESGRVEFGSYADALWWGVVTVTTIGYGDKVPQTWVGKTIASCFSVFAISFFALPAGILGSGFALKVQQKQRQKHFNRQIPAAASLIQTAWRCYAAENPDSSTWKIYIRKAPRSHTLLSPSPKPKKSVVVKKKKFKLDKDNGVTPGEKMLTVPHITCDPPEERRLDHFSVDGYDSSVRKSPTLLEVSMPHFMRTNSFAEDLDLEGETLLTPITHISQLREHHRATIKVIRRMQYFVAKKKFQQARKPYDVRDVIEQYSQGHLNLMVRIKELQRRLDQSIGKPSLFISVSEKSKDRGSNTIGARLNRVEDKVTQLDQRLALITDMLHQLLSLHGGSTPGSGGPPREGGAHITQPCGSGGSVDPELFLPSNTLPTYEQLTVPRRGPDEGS

Structure (SMILES)	EC50 (KCNQ2/3 (KCNQ3 subunit))	two-electrode voltage clamp in Xenopus oocytes, 100 uM quercetin (KCNQ1)
O=C(O)c1cc(O)c(O)c(O)c1 [gallic acid]	560 ± 3 nM	–
O=c1c(O)c(-c2ccc(O)c(O)c2)oc2cc(O)cc(O)c12 [quercetin]	–	quercetin enhances both activation and inactivation of homomeric KCNQ1 channels, inducing visible voltage-dependent decay at depolarized potentials
